Reference: publication PMC10205807, “Cross-species comparison in nonclinical pharmacokinetics of lenvatinib by a simple HPLC with ultraviolet detection” (Scientific Reports, 2023)

How the values were obtained:
plasma protein = assay: in vitro plasma protein binding, dogs; assay type: in vitro ADME
[1] = Allometric PK scaling, prediction of CLint in humans; details: cross-species allometric scaling, BW 70 kg
Method: One of the typical approaches for predicting human PK from animal PK is empirical allometric scaling. As the CLtot of lenvatinib was relatively low and Vdss of lenvatinib was low to medium, thus it is theoretically preferable to correct by fp for both parameters. The CLtot divided by fp (CLtot/fp) or Vdss divided by fp (Vdss/fp) were plotted against body weight (BW) by log–log scale, and a linear regression was performed to estimate a slope and intercept for linear regression. The BW used in the calculation was 0.02, 0.2, 10, 5, and 70 kg for mice, rats, dogs, monkeys, and humans, respectively. CLtot and Vdss of lenvatinib in humans were predicted by using the regression line and the BW of humans. As no PK data of lenvatinib are available for CLtot and Vdss, which can be estimated only from intravenous administration PK study in humans, it is not possible to assess predictability of the allometric scaling for these two parameters of lenvatinib in humans. However, it is possible to predict exposure of lenvatinib after oral administration (AUCoral) in humans from the allometry scaling of hepatic intrinsic clearance (CLint). […]

[2] = Stability of lenvatinib in monkey plasma and processed samples; assay type: physicochemical, monkeys; details: monkey plasma; for Freeze/thaw stability, mean percentage bias from the theoretical values: 3 cycles; for Frozen stability, mean percentage bias from the theoretical values: below − 15 °C, 6 weeks
Method: Calibration samples and QC samples for the reproducibility assessment were prepared by spiking 0.05 mL of the working standard solutions to blank plasma (0.05 mL), and QC samples for the stability assessment were prepared by fortifying 0.05 mL of the solution to 1.5 mL of bank plasma. Lenvatinib concentrations in plasma were 0.005, 0.01, 0.03, 0.1, 0.3, 1, 3, 10, 30, and 100 μg/mL for the calibration samples, and were 0.005, 0.01, 1, and 100 μg/mL for the QC samples for reproducibility assessment. Lenvatinib concentrations of QC samples for the stability assessment were 0.01, 1, and 80 μg/mL.
The developed method for the determination of lenvatinib concentrations in plasma was validated and the following validation parameters including linearity, selectivity, intra- and inter-batch reproducibility, extraction recovery, and stability were evaluated in accordance with the bioanalytical guidelines by United States Food and Drug Administration (US-FDA)[7]. The peak height ratios of lenvatinib to the IS of calibration samples were plotted against the corresponding nominal concentrations of lenvatinib. The calibration curve was prepared by the least square method with 1/(concentration)^2 as the weighting factor. In the linearity assessment, accuracy of each calibration sample was determined to ensure that relative error (RE) at each concentration was within ± 15% (within ± 20% at the LLOQ). In the selectivity assessment, peak heights at the retention times of lenvatinib and the IS should be within 20% and 5% of those of the LLOQ for lenvatinib and the IS, respectively in blank plasma from six individuals. Intra-batch accuracy and precision were evaluated using QC samples at the four concentrations, LLOQ, low QC (LQC), mid QC (MQC), and ULOQ. Six replicates per concentration were assayed to calculate RE and relative standard deviation (RSD). Inter-batch accuracy and precision were evaluated by testing a single sample at each concentration across five batches (n = 5 in total). The acceptance criteria for RE and RSD in the intra- and inter-batch reproducibility should be within ± 15% and 15%, respectively, except at the LLOQ that was within ± 20% and 20%, respectively, was allowed. Extraction recoveries of lenvatinib and the IS from plasma samples of the four species were evaluated. The recoveries of lenvatinib at the low, mid, and high QC levels (triplicates per concentration), and that of the IS (0.5 μg/mL) were determined. Peak heights of lenvatinib after extraction from plasma samples were compared to those of the neat solution with the same concentrations. Stability of lenvatinib in plasma and processed samples was assessed at the low and high QC levels. Lenvatinib concentrations in samples after storage were compared to the theoretical concentrations and RE values were calculated. The RE values should be within ± 15% when considered stable. Freeze–thaw stability in plasma was evaluated up to three freeze–thaw cycles and frozen stability in plasma was evaluated at − 15 °C or below for 4 weeks (mice, rats, and dogs) or 6 weeks (monkeys). Stability in processed samples was assessed at 4 °C for 7 days. Stability of lenvatinib in the standard solutions was evaluated for the stock (100 μg/mL) and the working solution (5 ng/mL). The stability of the IS solution (0.5 μg/mL) was also assessed. The standard solutions were stored at 5 °C for 4 weeks or 6 h at ambient temperature. The peak height of the stored solutions was compared to that of the freshly prepared solution. […]

COc1cc2nccc(Oc3ccc(NC(=O)NC4CC4)c(Cl)c3)c2cc1C(N)=O [lenvatinib, Lenvatinib]
fraction unbound at 0.3 μg/mL (plasma protein; dog plasma, 0.3 μg/mL): 0.084 | fraction unbound (plasma protein; dog, plasma, dogs, 0.3–30 μg/mL, read-out: average fp (unbound fraction in plasma)): 0.089 | CLint predicted in humans [1]: 78.4 mL/min/kg | Freeze/thaw stability, mean percentage bias from the theoretical values ([2]; HQC 80 μg/mL): 1.6% | Freeze/thaw stability, mean percentage bias from the theoretical values ([2]; MQC 1 μg/mL): 2.3% | Frozen stability, mean percentage bias from the theoretical values ([2]; HQC 80 μg/mL): 7.0% | Frozen stability, mean percentage bias from the theoretical values ([2]; LQC 0.01 μg/mL): 2.0% | Frozen stability, mean percentage bias from the theoretical values ([2]; MQC 1 μg/mL): 4.2%
